Target: TYK2 (Homo sapiens, UniProt P29597)
Experiment: TYK2 protein degradation in NOMO-1 cells by immunoblotting
Type: cell-based
Design: endogenous in cells
Conditions: NOMO-1 cells
Protocol: NOMO-1 cells were treated with CPD-155, CPD-157, and CPD-158 at 0.1, 1, 10, 100 and 1000 nM concentrations for 16 hours. […] Data shown that CPD-155, CPD-157, and CPD-158 are very potent at the reduction protein levels of TYK2.
MOLT-4 or NOMO-1 cells were cultured at 37° C. with 5% CO2 in RPMI 1640 Medium supplemented with 10% fetal bovine serum. Cells were authenticated using the short tandem repeat (STR) assays. Mycoplasma test results were negative.
Cultured cells were washed with cold PBS once and lysed in cold RIPA buffer supplemented with protease inhibitors and phosphatase inhibitors (Beyotime Biotechnology). The solutions were then incubated at 4° C. for 30 minutes with gentle agitation to fully lyse cells. Cell lysates were centrifuged at 13,000 rpm for 10 minutes at 4° C. and pellets were discarded. Total protein concentrations in the lysates were determined by BCA assays (Beyotime Biotechnology). Cell lysates were mixed with Laemmli loading buffer to 1× and heated at 99° C. for 5 min. Proteins were resolved on SDS-PAGE and visualized by chemiluminescence. Images were taken by a ChemiDoc MP Imaging system (Bio-Rad). Protein bands were quantitated using the accompanied software provided by Bio-Rad.

Sequence of TYK2 (P29597 whole entry): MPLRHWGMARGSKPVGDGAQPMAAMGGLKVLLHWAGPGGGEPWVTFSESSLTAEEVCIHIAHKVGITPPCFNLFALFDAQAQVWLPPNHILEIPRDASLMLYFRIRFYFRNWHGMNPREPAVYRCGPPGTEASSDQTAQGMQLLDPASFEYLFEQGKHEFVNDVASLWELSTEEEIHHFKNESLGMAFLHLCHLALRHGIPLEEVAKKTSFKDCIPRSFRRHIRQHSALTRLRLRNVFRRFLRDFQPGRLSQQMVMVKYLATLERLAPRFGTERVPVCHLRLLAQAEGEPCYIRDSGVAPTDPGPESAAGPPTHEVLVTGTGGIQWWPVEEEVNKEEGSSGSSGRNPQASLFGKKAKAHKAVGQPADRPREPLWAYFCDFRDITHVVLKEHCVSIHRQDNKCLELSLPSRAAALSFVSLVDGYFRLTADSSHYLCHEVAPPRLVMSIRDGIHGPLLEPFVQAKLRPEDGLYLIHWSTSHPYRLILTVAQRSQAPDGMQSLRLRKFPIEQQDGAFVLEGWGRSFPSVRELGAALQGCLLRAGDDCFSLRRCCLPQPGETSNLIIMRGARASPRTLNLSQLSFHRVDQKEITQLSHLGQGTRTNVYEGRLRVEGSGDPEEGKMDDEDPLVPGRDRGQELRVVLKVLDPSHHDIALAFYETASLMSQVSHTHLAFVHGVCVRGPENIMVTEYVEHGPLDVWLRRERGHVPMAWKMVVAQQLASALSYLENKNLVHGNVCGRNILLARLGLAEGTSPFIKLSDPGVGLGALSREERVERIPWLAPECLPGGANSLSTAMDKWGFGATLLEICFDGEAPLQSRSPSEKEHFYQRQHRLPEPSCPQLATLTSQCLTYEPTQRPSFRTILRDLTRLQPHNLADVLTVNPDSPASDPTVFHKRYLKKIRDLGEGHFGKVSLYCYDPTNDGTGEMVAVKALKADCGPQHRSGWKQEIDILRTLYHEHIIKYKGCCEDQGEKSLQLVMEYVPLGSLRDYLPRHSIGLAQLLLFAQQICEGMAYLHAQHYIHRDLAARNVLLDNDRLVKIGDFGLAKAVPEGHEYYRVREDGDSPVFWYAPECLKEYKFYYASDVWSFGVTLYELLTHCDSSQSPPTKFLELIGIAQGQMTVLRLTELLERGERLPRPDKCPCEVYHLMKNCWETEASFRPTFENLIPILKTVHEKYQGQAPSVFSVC

TYK2 Degradation (NOMO-1, 10 nM) | TYK2 Degradation (NOMO-1, 100 nM) | Structure (SMILES)
C (C: ≤20% TYK2 degradation) | A (A: ≥60% TYK2 degradation) | CNC(=O)c1nnc(Nc2ccc(C(=O)NCCCC(=O)N[C@H](C(=O)N3C[C@H](O)C[C@H]3C(=O)N[C@@H](C)c3ccc(-c4scnc4C)cc3)C(C)(C)C)cn2)cc1Nc1cccc(-c2ncn(C)n2)c1OC [CPD-139, 6-((5-((4-(((S)-1-((2S,4R)-4-Hydroxy-2-(((S)-1-(4-(4-methylthiazol-5-yl)phenyl)ethyl)carbamoyl)pyrrolidin-1-yl)-3,3-dimethyl-1-oxobutan-2-yl)amino)-4-oxobutyl)carbamoyl)pyridin-2-yl)amino)-4-((2-methoxy-3-(1-methyl-1H-1,2,4-triazol-3-yl)phenyl)amino)-N-methylpyridazine-3-carboxamide]
 | A (A: ≥60% TYK2 degradation) | CNC(=O)c1nnc(Nc2ccc(CNC(=O)CCCCCCCC(=O)N[C@H](C(=O)N3C[C@H](O)C[C@H]3C(=O)N[C@@H](C)c3ccc(-c4scnc4C)cc3)C(C)(C)C)cn2)cc1Nc1cccc(-c2ncn(C)n2)c1OC [CPD-132, N1-((S)-1-((2S,4R)-4-Hydroxy-2-(((S)-1-(4-(4-methylthiazol-5-yl)phenyl)ethyl)carbamoyl)pyrrolidin-1-yl)-3,3-dimethyl-1-oxobutan-2-yl)-N9-((6-((5-((2-methoxy-3-(1-methyl-1H-1,2,4-triazol-3-yl)phenyl)amino)-6-(methylcarbamoyl)pyridazin-3-yl)amino)pyridin-3-yl)methyl)nonanediamide]
A (A: ≥60% TYK2 degradation) | C (C: ≤20% TYK2 degradation) | CNC(=O)c1nnc(Nc2ccc(C(=O)NCCCCCCCCNc3ccc4c(c3)C(=O)N(C3CCC(=O)NC3=O)C4=O)cn2)cc1Nc1cccc(-c2ncn(C)n2)c1OC (stereo not shown) [CPD-167, 6-((5-((8-((2-(2,6-dioxopiperidin-3-yl)-1,3-dioxoisoindolin-5-yl)amino)octyl)carbamoyl)pyridin-2-yl)amino)-4-((2-methoxy-3-(1-methyl-1H-1,2,4-triazol-3-yl)phenyl)amino)-N-methylpyridazine-3-carboxamide]
A (A: ≥60% TYK2 degradation) | A (A: ≥60% TYK2 degradation) | CNC(=O)c1nnc(Nc2ccc(C(=O)NCCCCCCCCC(=O)N[C@H](C(=O)N3C[C@H](O)C[C@H]3C(=O)N[C@@H](C)c3ccc(-c4scnc4C)cc3)C(C)(C)C)cn2)cc1Nc1cccc(-c2ncn(C)n2)c1OC [CPD-144, 6-((5-((9-(((S)-1-((2S,4R)-4-hydroxy-2-(((S)-1-(4-(4-methylthiazol-5-yl)phenyl)ethyl)carbamoyl)pyrrolidin-1-yl)-3,3-dimethyl-1-oxobutan-2-yl)amino)-9-oxononyl)carbamoyl)pyridin-2-yl)amino)-4-((2-methoxy-3-(1-methyl-1H-1,2,4-triazol-3-yl)phenyl)amino)-N-methylpyridazine-3-carboxamide]
C (C: ≤20% TYK2 degradation) | C (C: ≤20% TYK2 degradation) | CNC(=O)c1nnc(Nc2ccc(C(=O)NCCNc3ccc4c(c3)C(=O)N(C3CCC(=O)NC3=O)C4=O)cn2)cc1Nc1cccc(-c2ncn(C)n2)c1OC (stereo not shown) [CDD-176, 6-((5-((2-((2-(2,6-dioxopiperidin-3-yl)-1,3-dioxoisoindolin-5-yl)amino)ethyl)carbamoyl)pyridin-2-yl)amino)-4-((2-methoxy-3-(1-methyl-1H-1,2,4-triazol-3-yl)phenyl)amino)-N-methylpyridazine-3-carboxamide]
C (C: ≤20% TYK2 degradation) | C (C: ≤20% TYK2 degradation) | CNC(=O)c1nnc(Nc2ccc(N3CCN(C(=O)CCCCCCC(=O)N[C@H](C(=O)N4C[C@H](O)C[C@H]4C(=O)N[C@@H](C)c4ccccc4)C(C)(C)C)CC3)cn2)cc1Nc1cccc(-c2ncn(C)n2)c1OC [CDD-169, 6-((5-(4-(8-(((S)-1-((2S,4R)-4-hydroxy-2-(((S)-1-phenylethyl)carbamoyl)pyrrolidin-1-yl)-3,3-dimethyl-1-oxobutan-2-yl)amino)-8-oxooctanoyl)piperazin-1-yl)pyridin-2-yl)amino)-4-((2-methoxy-3-(1-methyl-1H-1,2,4-triazol-3-yl)phenyl)amino)-N-methylpyridazine-3-carboxamide]
A (A: ≥60% TYK2 degradation) | A (A: ≥60% TYK2 degradation) | CNC(=O)c1nnc(Nc2ccc(N3CCN(C4CCN(C(=O)CCCCCC(=O)N[C@H](C(=O)N5C[C@H](O)C[C@H]5C(=O)N[C@@H](C)c5ccc(-c6scnc6C)cc5)C(C)(C)C)CC4)CC3)cn2)cc1Nc1cccc(-c2ncn(C)n2)c1OC [CPD-148, 6-((5-(4-(1-(7-(((S)-1-((2S,4R)-4-hydroxy-2-(((S)-1-(4-(4-methylthiazol-5-yl)phenyl)ethyl)carbamoyl)pyrrolidin-1-yl)-3,3-dimethyl-1-oxobutan-2-yl)amino)-7-oxoheptanoyl)piperidin-4-yl)piperazin-1-yl)pyridin-2-yl)amino)-4-((2-methoxy-3-(1-methyl-1H-1,2,4-triazol-3-yl)phenyl)amino)-N-methylpyridazine-3-carboxamide]
C (C: ≤20% TYK2 degradation) | A (A: ≥60% TYK2 degradation) | CNC(=O)c1nnc(Nc2ccc(C(=O)NC3CC(CC(=O)N[C@H](C(=O)N4C[C@H](O)C[C@H]4C(=O)N[C@@H](C)c4ccc(-c5scnc5C)cc4)C(C)(C)C)C3)cn2)cc1Nc1cccc(-c2ncn(C)n2)c1OC (stereo partly drawn) [CPD-161, 6-((5-((3-(2-(((S)-1-((2S,4R)-4-hydroxy-2-(((S)-1-(4-(4-methylthiazol-5-yl)phenyl)ethyl)carbamoyl)pyrrolidin-1-yl)-3,3-dimethyl-1-oxobutan-2-yl)amino)-2-oxoethyl)cyclobutyl)carbamoyl)pyridin-2-yl)amino)-4-((2-methoxy-3-(1-methyl-1H-1,2,4-triazol-3-yl)phenyl)amino)-N-methylpyridazine-3-carboxamide]

Structure (SMILES) | TYK2 Degradation (NOMO-1, 10 nM) | TYK2 Degradation (NOMO-1, 100 nM)
CNC(=O)c1nnc(Nc2ccc(C#CC3CN(C(=O)CCCCC(=O)N[C@H](C(=O)N4C[C@H](O)C[C@H]4C(=O)N[C@@H](C)c4ccc(-c5scnc5C)cc4)C(C)(C)C)C3)cn2)cc1Nc1cccc(-c2ncn(C)n2)c1OC [CPD-123, 6-((5-((1-(6-(((S)-1-((2S,4R)-4-Hydroxy-2-(((S)-1-(4-(4-methylthiazol-5-yl)phenyl)ethyl)carbamoyl)pyrrolidin-1-yl)-3,3-dimethyl-1-oxobutan-2-yl)amino)-6-oxohexanoyl)azetidin-3-yl)ethynyl)pyridin-2-yl)amino)-4-((2-methoxy-3-(1-methyl-1H-1,2,4-triazol-3-yl)phenyl)amino)-N-methylpyridazine-3-carboxamide] | B (B: <60% TYK2 degradation, and >20% TYK2 degradation) | A (A: ≥60% TYK2 degradation)
CNC(=O)c1nnc(Nc2ccc(C(=O)NCCCCNc3cccc4c3C(=O)N(C3CCC(=O)NC3=O)C4=O)cn2)cc1Nc1cccc(-c2ncn(C)n2)c1OC (stereo not shown) [CPD-154, 6-((5-((4-((2-(2,6-Dioxopiperidin-3-yl)-1,3-dioxoisoindolin-4-yl)amino)butyl)carbamoyl)pyridin-2-yl)amino)-4-((2-methoxy-3-(1-methyl-1H-1,2,4-triazol-3-yl)phenyl)amino)-N-methylpyridazine-3-carboxamide] |  | B (B: <60% TYK2 degradation, and >20% TYK2 degradation)
CNC(=O)c1nnc(Nc2ccc(N3CCN(CCCCCCCC(=O)N[C@H](C(=O)N4C[C@H](O)C[C@H]4C(=O)N[C@@H](C)c4ccc(-c5scnc5C)cc4)C(C)(C)C)CC3)cn2)cc1Nc1cccc(-c2ncn(C)n2)c1OC [CPD-113, 6-((5-(4-(8-(((S)-1-((2S,4R)-4-Hydroxy-2-(((S)-1-(4-(4-methylthiazol-5-yl)phenyl)ethyl)carbamoyl)pyrrolidin-1-yl)-3,3-dimethyl-1-oxobutan-2-yl)amino)-8-oxooctyl)piperazin-1-yl)pyridin-2-yl)amino)-4-((2-methoxy-3-(1-methyl-1H-1,2,4-triazol-3-yl)phenyl)amino)-N-methylpyridazine-3-carboxamide] | B (B: <60% TYK2 degradation, and >20% TYK2 degradation) | A (A: ≥60% TYK2 degradation)
CNC(=O)c1nnc(Nc2ccc(N3CCN(C4CCN(C(=O)CCCC(=O)N[C@H](C(=O)N5C[C@H](O)C[C@H]5C(=O)N[C@@H](C)c5ccc(-c6scnc6C)cc5)C(C)(C)C)CC4)CC3)cn2)cc1Nc1cccc(-c2ncn(C)n2)c1OC [CPD-146, 6-((5-(4-(1-(5-(((S)-1-((2S,4R)-4-Hydroxy-2-(((S)-1-(4-(4-methylthiazol-5-yl)phenyl)ethyl)carbamoyl)pyrrolidin-1-yl)-3,3-dimethyl-1-oxobutan-2-yl)amino)-5-oxopentanoyl)piperidin-4-yl)piperazin-1-yl)pyridin-2-yl)amino)-4-((2-methoxy-3-(1-methyl-1H-1,2,4-triazol-3-yl)phenyl)amino)-N-methylpyridazine-3-carboxamide] | B (B: <60% TYK2 degradation, and >20% TYK2 degradation) | A (A: ≥60% TYK2 degradation)

Source: US20240059671A1, “TYROSINE KINASE 2 (TYK2) DEGRADATION COMPOUNDS AND METHODS OF USE” (CULLGEN (SHANGHAI), INC., priority 2020, published 2024)
